Source: US8067419B2, “Piperazines as antimalarial agents” (Actelion Pharmaceuticals Ltd., priority 2005, dated 2011)

Tested on: P. falciparum K1
Test: Plasmodium falciparum in vitro assay ([3H] hypoxanthine incorporation)
Format: cell-based
Details: 72 h, erythrocytic stages of P. falciparum K1 (strain resistant to chloroquine and pyrimethamine), human red cells, 48 h + 24 h with [3H] hypoxanthine
Experimental: In vitro activity against erythrocytic stages of P. falciparum is determined using a [^3H] hypoxanthine incorporation assay. One strain resistant to chloroquine and pyrimethamine (P. falciparum K1) is used in the assays, and all test compounds are compared for activity with the standard drugs chloroquine (sigma C6628) and artemisinin (sigma-36, 159-3). Compounds are diluted in DMSO to 1 mM and added to parasite cultures incubated in RPMI 1640 medium without hypoxanthine, supplemented with HEPES (5.94 g/L), NaHCO3 (2.1 g/L), neomycin (100 U/mL), Albumax (5 g/L) and washed human red cells at 2.5% haematocrit (0.3% parasitaemia). Seven serial doubling dilutions of each drug are prepared in 96-well microtitre plates and incubated in a humidifying atmosphere at 37° C.; 4% CO2, 3% O2, 93% N2.
After 48 hours, 50 μl of [^3H] hypoxanthine (0.5 μCi) is added to each well of a plate. The plates are incubated for a further 24 hours under the same conditions. The plates are then harvested with a Betaplate cell harvester (Wallac) and washed with distilled water. The dried filters are inserted into a plastic foil with 10 mL of scintillation fluid, and counted in a Betaplate liquid scintillation counter. IC50 values are calculated from sigmoidal inhibition curves using Microsoft Excel.

Row | Structure (SMILES) | IC50
1 | CCCCCc1ccc(CN(C(=O)CCc2cc(C(F)(F)F)cc(C(F)(F)F)c2)[C@@H](Cc2ccccc2)C(=O)N2CCN(Cc3ccccc3)CC2)cc1 [Example 6, N—[(S)-1-benzyl-2-(4-benzyl-piperazin-1-yl)-2-oxo-ethyl]-3-(3,5-bis-trifluoromethyl-phenyl)-N-(4-pentyl-benzyl)-propionamide] | 588 nM
2 | CCCCCc1ccc(CN(C(=O)/C=C/c2ccc(C(F)(F)F)cc2)[C@@H](Cc2ccccc2)C(=O)N2CCN(Cc3ccccc3)CC2)cc1 [Example 1, N—[(S)-1-benzyl-2-(4-benzyl-piperazin-1-yl)-2-oxo-ethyl]-N-(4-pentyl-benzyl)-3-(4-trifluoromethyl-phenyl)-acrylamide] | 3.8 nM
3 | CCCCCc1ccc(CN(C(=O)/C=C/c2ccccc2C(F)(F)F)[C@@H](Cc2ccccc2)C(=O)N2CCN(Cc3ccccc3)CC2)cc1 [Example 3, N—[(S)-1-benzyl-2-(4-benzyl-piperazin-1-yl)-2-oxo-ethyl]-N-(4-pentyl-benzyl)-3-(2-trifluoromethyl-phenyl)-acrylamide] | 375 nM
4 | CCCCCc1ccc(CN(C(=O)/C=C/c2cccc(OC)c2)[C@@H](Cc2ccccc2)C(=O)N2CCN(Cc3ccccc3)CC2)cc1 [Example 5, N—[(S)-1-benzyl-2-(4-benzyl-piperazin-1-yl)-2-oxo-ethyl]-3-(3-methoxy-phenyl)-N-(4-pentyl-benzyl)-acrylamide] | 19 nM
5 | CCCCCc1ccc(CN(C(=O)/C=C/c2cccc(C(F)(F)F)c2)[C@@H](Cc2ccccc2)C(=O)N2CCN(Cc3ccccc3)CC2)cc1 [Example 2, N—[(S)-1-benzyl-2-(4-benzyl-piperazin-1-yl)-2-oxo-ethyl]-N-(4-pentyl-benzyl)-3-(3-trifluoromethyl-phenyl)-acrylamide] | 70 nM
6 | CCCCCc1ccc(CN(C(=O)/C=C/c2ccc(C(F)(F)F)cc2)[C@@H](Cc2ccccc2)C(=O)N2CCN(Cc3ccc(C(F)(F)F)nc3)CC2)cc1 [Example 15] | 11 nM
7 | CCCCOc1ccc(CN(C(=O)/C=C/c2ccc(C(F)(F)F)cc2)[C@@H](Cc2ccccc2)C(=O)N2CCN(Cc3ccccc3)CC2)cc1 [Example 29, N—[(S)-1-benzyl-2-(4-benzyl-piperazin-1-yl)-2-oxo-ethyl]-N-(4-butoxy-benzyl)-3-(4-trifluoromethyl-phenyl)-acrylamide] | 7.5 nM
8 | C[C@@H]1CC[C@H]2[C@@H](C)C(=O)O[C@@H]3O[C@@]4(C)CC[C@@H]1[C@]32OO4 [Artemisinin, artemisinin, reference compound] | 2 nM
9 | CCCCCc1ccc(CN(C(=O)/C=C/c2ccc(OC)cc2)[C@@H](Cc2ccccc2)C(=O)N2CCN(Cc3ccccc3)CC2)cc1 [Example 4, N—[(S)-1-benzyl-2-(4-benzyl-piperazin-1-yl)-2-oxo-ethyl]-3-(4-methoxy-phenyl)-N-(4-pentyl-benzyl)-acrylamide] | 7 nM

The remaining lines, values ahead:

Row | IC50 | Structure (SMILES)
10 | 11 nM | CCCCOc1ccc(CN(C(=O)/C=C/c2ccc(OC)cc2)[C@@H](Cc2ccccc2)C(=O)N2CCN(Cc3ccccc3)CC2)cc1 [Example 38]
11 | 8.3 nM | COc1ccc(/C=C/C(=O)N(Cc2ccc(OCCCN(C)C)cc2)[C@@H](Cc2ccccc2)C(=O)N2CCN(Cc3ccccc3)CC2)cc1 [Example 43]
12 | 6.9 nM | CCCCc1ccc(CN(C(=O)/C=C/c2ccc(C(F)(F)F)cc2)[C@@H](Cc2ccccc2)C(=O)N2CCN(Cc3ccccc3)CC2)cc1 [Example 33]
13 | 18 nM | CC(C)Cc1ccc(CN(C(=O)/C=C/c2ccc(C(F)(F)F)cc2)[C@@H](Cc2ccccc2)C(=O)N2CCN(Cc3ccccc3)CC2)cc1 [Example 37]
14 | 9.5 nM | O=C([C@H](Cc1ccccc1)N(Cc1ccc(N2CCCC2=O)nc1)C(=O)/C=C/c1ccc(C(F)(F)F)cc1)N1CCN(Cc2ccccc2)CC1 [Example 129, N—[(S)-1-benzyl-2-(4-benzyl-piperazin-1-yl)-2-oxo-ethyl]-N-[6-(2-oxo-pyrrolidin-1-yl)-pyridin-3-ylmethyl]-3-(4-trifluoromethyl-phenyl)-acrylamide]
15 | 4.8 nM | O=C([C@H](Cc1ccccc1)N(Cc1ccc(-c2ccncc2)nc1)C(=O)/C=C/c1ccc(C(F)(F)F)cc1)N1CCN(Cc2ccccc2)CC1 [Example 125, N—[(S)-1-benzyl-2-(4-benzyl-piperazin-1-yl)-2-oxo-ethyl]-N-[2,4′]bipyridinyl-5-ylmethyl-3-(4-trifluoromethyl-phenyl)-acrylamide]
